This passage reports IC50 results from patent publication US11780845B2 (Relay Therapeutics, Inc., priority 2019, dated 2023).

T1 sequence (P21802 22-821): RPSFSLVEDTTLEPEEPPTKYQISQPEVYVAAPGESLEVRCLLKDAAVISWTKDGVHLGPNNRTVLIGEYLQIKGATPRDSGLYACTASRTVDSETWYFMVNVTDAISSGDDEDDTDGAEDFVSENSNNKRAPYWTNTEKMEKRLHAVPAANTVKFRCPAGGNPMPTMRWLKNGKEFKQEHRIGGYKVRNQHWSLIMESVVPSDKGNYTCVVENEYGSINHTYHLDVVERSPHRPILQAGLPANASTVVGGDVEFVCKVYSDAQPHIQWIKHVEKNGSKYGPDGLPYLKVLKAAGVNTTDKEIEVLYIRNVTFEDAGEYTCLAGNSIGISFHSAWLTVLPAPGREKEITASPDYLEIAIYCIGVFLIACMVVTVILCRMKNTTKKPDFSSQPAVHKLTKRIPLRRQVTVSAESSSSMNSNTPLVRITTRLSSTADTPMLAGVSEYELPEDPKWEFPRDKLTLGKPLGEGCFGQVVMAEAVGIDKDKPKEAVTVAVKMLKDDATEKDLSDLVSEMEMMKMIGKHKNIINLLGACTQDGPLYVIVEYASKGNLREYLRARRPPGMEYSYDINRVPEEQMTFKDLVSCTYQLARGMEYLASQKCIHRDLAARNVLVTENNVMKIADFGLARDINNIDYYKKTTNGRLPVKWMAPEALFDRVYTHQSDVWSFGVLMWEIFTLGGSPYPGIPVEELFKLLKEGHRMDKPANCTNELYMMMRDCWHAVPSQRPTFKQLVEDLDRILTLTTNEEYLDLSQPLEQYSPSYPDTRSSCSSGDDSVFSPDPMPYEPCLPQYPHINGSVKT

One experiment addresses T1, FGFR2 (Homo sapiens (Human), UniProt P21802). The experiment is described as follows: Biochemical FGFR2 Caliper assay.
`C=C(C)C(=O)Nc1ccc(-c2c(-c3sc4ccccc4c3C)c3c(N)ncnc3n2C)cc1` [Example 1247]: the IC50 fell in the range of 1000 to 100000 nM.
As to `C=CC(=O)Nc1ccc(-c2c(-c3ccc(Oc4cccc(C)n4)cc3)c3c(C)ncnc3n2C)cc1` [Example 1220], the IC50 was < 100 nM.
Compound `C=CC(=O)Nc1ccc(-c2[nH]c3ncnc(C)c3c2-c2ccc(Oc3ccccc3)cc2)cc1` [Example 1254] displayed an IC50 of 1000 to 100000 nM.
Take `C=CC(=O)Nc1ccc(-c2c(-c3ccc(Oc4ccccc4)cc3)c3c(C)ncnc3n2C)cc1` [Example 1225]: the IC50 lay in the range of 250 to 1000 nM.
Turning to `C=CC(=O)Nc1ccc(-c2c(-c3ccc4cc[nH]c4c3)c3c(N)ncnc3n2C)cc1` [Example 1147], the IC50 lay within 1000 to 100000 nM.
`C=C(C)C(=O)Nc1ccc(-c2c(-c3ccc(-n4cc(C(F)(F)F)cn4)cc3)c3c(N)ncnc3n2C)cc1` [Example 1226] showed an IC50 of 1000 to 100000 nM.
`C#Cc1cc2c(cn1)-c1c(C3=CC[C@H](C(=O)N4CCC[C@H]4C#N)CC3)c3c(N)ncnc3n1CCC2` [Example 1496] showed an IC50 of 250 to 1000 nM.
Consider `C=CC(=O)Nc1ccc(-c2c(-c3cnsc3)c3c(N)ncnc3n2C)cc1` [Example 1150], for which the IC50 is < 100 nM.
On the same count and under the same terms, for `C=C(C)C(=O)Nc1ccc(-c2c(-c3cc4ccccc4s3)c3c(N)ncnc3n2C)cc1` [Example 1209] the value was 250 to 1000 nM; for `C#Cc1ccc(-c2c(-c3ccc(Oc4nccc(C)n4)c(F)c3)c3c(C)ncnc3n2C)c(C)n1` [Example 1174], 1000 to 100000 nM; for `C=C(F)C(=O)Nc1ccc(-c2c(-c3ccc(-c4noc(C5CC5)n4)cc3)c3c(N)ncnc3n2C)cc1` [Example 1326], 100 to 250 nM.
Consider `C#Cc1cc(OC)c(-c2c(-c3ncc(Oc4nccc(C)n4)cc3F)c3c(N)ncnc3n2C)c(C)n1` [Example 1451], for which the IC50 was < 100 nM.
Regarding `C=CC(=O)Nc1ccc(-c2c(-c3ccc(Oc4nccc(C)n4)c(C)c3)c3c(N)ncnc3n2C)c(F)c1` [Example 1075], the IC50 is < 100 nM.
On the same count and under the same terms, to `C#Cc1cc2c(cn1)-c1c(C3=CC[C@@H](C(=O)N4CCC[C@H]4C#N)CC3)c3c(N)ncnc3n1CCC2` [Example 1444] belongs < 100 nM; to `C=C(C)C(=O)Nc1cnc(-c2c(-c3ccc(Oc4cccc(C)n4)c(F)c3)c3c(C)ncnc3n2C)c(C)c1` [Example 1139], < 100 nM; to `C=C(C)C(=O)Nc1cc(Cl)c(-c2c(-c3ccc(Oc4nccc(C)n4)cc3)c3c(N)ncnc3n2C)cc1F` [Example 1076], < 100 nM.
`C=CC(=O)Nc1ccc(-c2c(-c3cc4ccccc4s3)c3c(C)ncnc3n2C)cc1` [Example 1223] gave an IC50 of 1000 to 100000 nM.
Consider `C=C(C)C(=O)Nc1ccc(-c2c(C#Cc3cc(OC)cc(OC)c3)c3c(N)ncnc3n2C)cc1` [Example 1152], for which the half-inhibitory concentration (IC50) fell in the range of 1000 to 100000 nM.
As to `C=CC(=O)Nc1ccc(-c2c(-c3ccc(-c4noc(C5CC5)n4)cc3)c3c(N)ncnc3n2C)cc1` [Example 1335], the IC50 was < 100 nM.
`C=C(C)C(=O)Nc1ccc(-c2c(-c3ccc(-c4nc(C)no4)cc3)c3c(N)ncnc3n2C)cc1` [Example 1244]: the half-inhibitory concentration (IC50) was in the range of 1000 to 100000 nM.
Consider `C=C(C)C(=O)Nc1ccc(-c2c(-c3ccc4nn(C)cc4c3)c3c(N)ncnc3n2C)cc1` [Example 1122], for which the IC50 was < 100 nM.
Regarding `C=C(C)C(=O)Nc1ccc(-c2c(-c3ccc(-c4noc(C5CC5)n4)cc3)c3c(N)ncnc3n2C)cn1` [Example 1362], the IC50 was 100 to 250 nM.
`C=C(C)C(=O)Nc1ccc(-c2c(-c3ccc(-n4ccc(C)n4)nc3)c3c(N)ncnc3n2C)cc1` [Example 1146] returned an IC50 of 250 to 1000 nM.
For the compound `C#Cc1cc(C)c(-c2c(-c3ccc(Oc4nccc(C)n4)cc3F)c3c(N)ncnc3n2C)cn1` [Example 1196], the IC50 was in the range of 250 to 1000 nM.
On the same count and under the same terms, for `C=CC(=O)Nc1ccc(-c2c(-c3cc4ccccc4s3)c3c(N)ncnc3n2C)cc1` [Example 1149] the value was < 100 nM.
In the case of `C=C(C)C(=O)Nc1ccc(-c2c(-c3ccc(-n4cc(C)cn4)cc3)c3c(N)ncnc3n2C)cc1` [Example 1191], the IC50 fell in the range of 1000 to 100000 nM.

Another experiment addresses T1, FGFR2. Kind of experiment: FGFR2 Biochemical Caliper Assay. As for the experimental part:
Compounds of the present invention were also tested in a FGFR2 Biochemical Caliper Assay. Compounds were prepared in 10 mM DMSO solution and serially diluted into 11 concentrations by 3-fold dilution. […] 5 uL of ATP solution (100 uM) was added to start the reaction and the plate was incubated for 90 minutes, then 70 uL of stopping buffer (0.5M EDTA) was added to terminate the reaction. Each well was analyzed using EZ reader.
As for `CC#CC(=O)Nc1ccc(-c2c(-c3cccc(OC)c3)c3c(N)ncnc3n2C)cc1` [Example 73], the IC50 fell in the range of 100 to 250 nM.
`C=C(C)C(=O)Nc1ccc(-c2c(-c3ccc(CN4CC[C@@H](O)C4)cc3)c3c(N)ncnc3n2C)cc1` [Example 146] had an IC50 of 1000 to 100000 nM.
On the same count and under the same terms, for `C=CC(=O)Nc1ccc(-c2c(-c3ccc(C(=O)c4ccccc4C)c(OC)c3)c3c(N)ncnc3n2C)cc1` [Example 81] the value was < 100 nM; for `C=C(C)C(=O)Nc1ccc(-c2c(-c3ccc(C(=O)N(C)C(CF)CF)cc3)c3c(N)ncnc3n2C)cc1` [Example 412], < 100 nM.
`C=CC(=O)N1CCC(n2cc(-c3c(-c4ccccc4OC)c4c(N)ncnc4n3C)cn2)CC1` [Example 611] yielded an IC50 of 1000 to 100000 nM.
On to `C=C(C)C(=O)Nc1ccc(-c2c(-c3ccc(C(=O)NC(C)CO)cc3)c3c(N)ncnc3n2C)cc1` (stereo not drawn) [Example 319], for which the concentration for half-maximal inhibition (IC50) was < 100 nM.
With `C=C(C)C(=O)Nc1ccc(-c2c(-c3ccc(C(O)c4ncccn4)c(OC)c3)c3c(N)ncnc3n2C)cc1` (stereo not drawn) [Example 93], the IC50 lay in the range of 250 to 1000 nM.
With `C=C(C)C(=O)Nc1ccc(-c2c(-c3ccc(C(=O)N4CC5CC4(C)C5)cc3)c3c(N)ncnc3n2C)cc1` [Example 548], the IC50 is < 100 nM.
Regarding `C=C(C)C(=O)Nc1ccc(-c2c(-c3ccc(-c4nnc(C(F)(F)F)o4)cc3)c3c(N)ncnc3n2C)cc1` [Example 286], the IC50 was 1000 to 100000 nM.
Turning to `C=C(C)C(=O)Nc1ccc(-c2c(-c3ccc(Oc4cccc(C)n4)cc3)c3c(N)ncnc3n2CCN2CCOCC2)cc1` [Example 79], the IC50 lay in the range of 100 to 250 nM.
`C=C(C)C(=O)Nc1ccc(-c2c(-c3ccc(C(=O)N4CCCC4)cc3)c3c(N)ncnc3n2C)c(CC)c1` [Example 517] registered an IC50 of 250 to 1000 nM.
In turn, `C=C(C)C(=O)Nc1ccc(-c2c(C3=CCC(C(=O)NCC(C)(C)OC)CC3)c3c(N)ncnc3n2C)cc1` (stereo not drawn) [Example 394] came in with an IC50 of 250 to 1000 nM.
For `C=C(C)C(=O)Nc1ccc(-c2c(-c3ccc(Oc4cnc(C)cn4)c(F)c3)c3c(N)ncnc3n2C)cc1` [Example 92], the IC50 lay within 1000 to 100000 nM.
`C=CC(=O)Nc1ccc(-c2c(-c3ccc(OC)c(OC)c3)c3c(N)ncnc3n2C)cc1` [Example 46]: the IC50 is < 100 nM.
Still for that read-out and setting: for `C=C(C)C(=O)Nc1ccc(-c2c(-c3ccc(C(=O)N(C)CCO)cc3)c3c(N)ncnc3n2C)cc1` [Example 254] the value was 250 to 1000 nM; for `C=C(C)C(=O)Nc1ccc(-c2c(-c3ccc(Oc4ccc(F)nc4)c(O)c3)c3c(N)ncnc3n2C)cc1` [Example 112], 1000 to 100000 nM.
For `C=CC(=O)Nc1ccc(-c2c(C3=CCNCC3)c3c(N)ncnc3n2C)cc1` [Example 75], the IC50 was 250 to 1000 nM.
In turn, `C=C(C)C(=O)Nc1ccc(-c2c(C3=CC[C@@H](C(=O)N4CC[C@@H](OC)C4)CC3)c3c(N)ncnc3n2C)cc1` (single isomer, unassigned) [Example 593] displayed an IC50 of 250 to 1000 nM.
`C=C(C)C(=O)Nc1ccc(-c2c(-c3ccc(C(=O)N(C)C4CCN(C)C4=O)cc3)c3c(N)ncnc3n2C)cc1` (stereo not drawn) [Example 390] yielded an IC50 of 1000 to 100000 nM.
In turn, `C=C(C)C(=O)Nc1ccc(-c2c(-c3cnn(CC4CCNCC4)c3)c3c(N)ncnc3n2C)cc1` [Example 221] returned an IC50 of 1000 to 100000 nM.
In turn, `C=C(C)C(=O)Nc1ccc(-c2c(-c3ccc(Oc4ncc(Cl)cn4)c(F)c3)c3c(N)ncnc3n2C)cc1` [Example 115] came in with an IC50 of 250 to 1000 nM.
`C=C(C)C(=O)Nc1ccc(-c2c(-c3ccc(S(=N)(=O)N4CCCC4)cc3)c3c(N)ncnc3n2C)cc1` (stereo not drawn) [Example 317] displayed an IC50 of 250 to 1000 nM.
Same read-out and setting: for `C=C(C)C(=O)Nc1ccc(-c2c(-c3ccc4c(c3)CCC(=O)N4)c3c(N)ncnc3n2C)cc1` [Example 147] the value was 1000 to 100000 nM.
On to `C=CC(=O)Nc1ccc(-c2c(-c3ccc(Oc4ncccn4)c(CO)c3)c3c(N)ncnc3n2C)cc1` [Example 71], for which the IC50 lay within 250 to 1000 nM.
`C=CC(=O)Nc1ccc(-c2c(C3CCN(C(=O)CNC(=O)NC)CC3)c3c(N)ncnc3n2C)cc1` [Example 104] yielded an IC50 of 1000 to 100000 nM.
In the case of `C=C(C)C(=O)Nc1ccc(-c2c(-c3ccc(C(=O)N4CC(F)(F)C4)cc3)c3c(N)ncnc3n2C)cc1` [Example 259], the IC50 fell in the range of 1000 to 100000 nM.
`C=C(C)C(=O)Nc1ccc(-c2c(-c3ccc(C(=O)N(C)CC4CCCO4)cc3)c3c(N)ncnc3n2C)cc1` (stereo not drawn) [Example 269] came in with an IC50 of 1000 to 100000 nM.
Still for that read-out and setting: to `C=C(C)C(=O)N(C)c1ccc(-c2c(-c3ccc(C(=O)NCC(C)(C)OC)cc3)c3c(N)ncnc3n2C)cc1` [Example 421] belongs 1000 to 100000 nM; to `C=C(C)C(=O)Nc1ccc(-c2c(-c3ccc(C(=O)N4CC5CC4(CO)C5)cc3)c3c(N)ncnc3n2C)cc1` [Example 547], 250 to 1000 nM.
In turn, `C=C(C)C(=O)Nc1ccc(-c2c(-c3ccc(Oc4cccc(C)n4)cc3)c3c(N)ncnc3n2C)cc1COC` [Example 403] displayed an IC50 of 100 to 250 nM.
Same read-out and setting: for `C=CC(=O)Nc1ccc(-c2c(-c3ccc(Oc4cccc(C)c4)cc3)c3c(N)ncnc3n2C)cc1` [Example 28] the value was < 100 nM; for `C=C(C)C(=O)Nc1ccc(-c2c(-c3ccc(C(=O)N(C)C4CCOC4)cc3)c3c(N)ncnc3n2C)cc1` (stereo not drawn) [Example 247], 1000 to 100000 nM.
Regarding `C=CC(=O)Nc1ccc(-c2c(-c3ccc(Oc4ccc(C)nc4)c(OC)c3)c3c(N)ncnc3n2C)cc1` [Example 44], the IC50 was < 100 nM.
The same measure, in the same setting: for `C=C(C)C(=O)Nc1ccc(-c2c(-c3ccc(Cc4ncccn4)c(OC)c3)c3c(N)ncnc3n2C)cc1` [Example 106] the value was 1000 to 100000 nM; for `C=CC(=O)Nc1ccc(-c2c(-c3ccc(Oc4ccc(C)cn4)c(OC)c3)c3c(N)ncnc3n2C)cc1` [Example 40], < 100 nM.
Regarding `C=C(C)C(=O)Nc1ccc(-c2c(-c3ccc(C(=O)NCC4CCC4)c(C(C)=O)c3)c3c(N)ncnc3n2C)cc1` [Example 457], the IC50 was 100 to 250 nM.
On to `C=CC(=O)Nc1cccc(-c2c(-c3ccc(Oc4cccc(C)n4)c(OC)c3)c3c(N)ncnc3n2C)c1` [Example 7], for which the IC50 was < 100 nM.

Broadly, the IC50 is the midpoint of a concentration-inhibition curve. A higher IC50 goes with weaker potency.
